Test results published in patent publication US20140066394A1, “Substituted 6-(Benzylamino) Purine Riboside Derivatives, Use Thereof and Compositions Containing These Derivatives” (Biopatterns, S.R.O, priority 2009, published 2014).

Experiment: Solubility noted on isolation of the product
Format: physicochemical
Conditions: qualitative, solvent as stated
Procedure: 2-Benzylmercapto-6-(2-hydroxy-3-methoxybenzylamino)purine riboside (1.18 g) was dissolved in liquid ammonia (125 mL) to yield a clear yellow solution. […]. Sodium was added in small portions until the blue colouration persisted for 15 mins A small amount of solid ammonium chloride was added cautiously to remove excess Na. The ammonia was evaporated to a small volume on a hot plate and ether (125 mL) added (to remove bibenzyl formed as a by-product). After most of the remaining ammonia had been evolved the ether extract was extracted with water (2×65 mL). The aqueous extrakt (at pH 12 to 13) was adjusted to 5 with AcOH cooling to below 10 on dry ice. A creamy solid precipitated. The solid was filtered, washed thoroughly with water and dried overnight over calcium chloride to yield a virtually white, very light powder. Yield: 760 mg. 2-Mercapto-6-(2-hydroxy-3-methoxybenzylamino)purine riboside gives a sharp, symmetrical peak on HPLC (300 nm) and moves readily on TLC in MeOH/chloroform mixtures. […] EtOH solution develops strong yellow colour on standing at room temperature for several days.
2-Methylmercapto-6-chloropurine riboside (3.3 g, 10 mmol) was refluxed with 2-hydroxy-3-methoxybenzylamine ([…], 12 5 mmol) in butanol (100 mL) containing triethylamine (3.2 mL) for 2 h. The butanol was removed under vacuum at 50 to 60° C. […]

solubility	SMILES
soluble in EtOH	COc1cccc(CNc2nc(S)nc3c2ncn3[C@@H]2O[C@H](CO)[C@@H](O)[C@H]2O)c1O [Compound 71, 2-Mercapto-6-(2-hydroxy-3-methoxybenzylamino)purine riboside]
very soluble in methanol and water	COc1cccc(CNc2nc(SC)nc3c2ncn3[C@@H]2O[C@H](CO)[C@@H](O)[C@H]2O)c1O [Compound 87, 2-Methylmercapto-6-(2-hydroxy-3-methoxybenzylamino)purine riboside]
